Counter-ions that a name gives are not always drawn.
Biological target: T1, human TLR9 (hTLR9) (Homo sapiens, UniProt Q9NR96)
T1 construct: expressed in transfected cells
T1 sequence (Q9NR96 26-1032): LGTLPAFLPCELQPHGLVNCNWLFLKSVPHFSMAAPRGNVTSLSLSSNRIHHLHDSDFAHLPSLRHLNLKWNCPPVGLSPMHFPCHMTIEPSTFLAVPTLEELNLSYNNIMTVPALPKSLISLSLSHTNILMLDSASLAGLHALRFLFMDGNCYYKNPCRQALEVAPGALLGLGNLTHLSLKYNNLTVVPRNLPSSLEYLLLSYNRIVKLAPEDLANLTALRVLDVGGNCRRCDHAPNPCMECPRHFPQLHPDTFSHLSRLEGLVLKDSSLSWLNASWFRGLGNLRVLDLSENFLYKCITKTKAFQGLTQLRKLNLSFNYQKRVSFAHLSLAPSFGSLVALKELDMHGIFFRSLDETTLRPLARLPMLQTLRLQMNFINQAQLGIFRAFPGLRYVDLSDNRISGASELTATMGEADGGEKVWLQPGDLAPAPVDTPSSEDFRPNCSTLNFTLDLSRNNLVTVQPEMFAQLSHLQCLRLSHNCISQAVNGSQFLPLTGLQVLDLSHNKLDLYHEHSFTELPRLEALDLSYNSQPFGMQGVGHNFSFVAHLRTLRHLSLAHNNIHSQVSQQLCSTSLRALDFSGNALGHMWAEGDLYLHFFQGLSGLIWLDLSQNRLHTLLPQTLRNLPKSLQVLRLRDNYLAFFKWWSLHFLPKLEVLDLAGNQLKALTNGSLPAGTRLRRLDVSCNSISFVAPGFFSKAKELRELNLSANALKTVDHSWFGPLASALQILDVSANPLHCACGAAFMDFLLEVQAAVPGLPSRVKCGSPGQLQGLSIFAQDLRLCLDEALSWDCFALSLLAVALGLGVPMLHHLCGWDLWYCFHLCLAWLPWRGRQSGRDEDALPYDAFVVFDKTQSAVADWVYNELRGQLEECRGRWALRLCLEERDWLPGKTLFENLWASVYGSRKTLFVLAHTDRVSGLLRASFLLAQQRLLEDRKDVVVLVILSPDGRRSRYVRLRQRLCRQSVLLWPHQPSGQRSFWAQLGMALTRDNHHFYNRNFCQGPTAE
Test: Antagonist screen, hTLR9-NFκB-293 cells, 6× NF-κB-luciferase reporter, with EC50 of CpG ODN 2006
Format: cell-based
Details: for hTLR9 (inhibitory effect, antagonist score): compound at 0.5, 5, 50 μg/ml, EC50 concentration of CpG ODN 2006, 16 h, NF-κB-luciferase
Procedure, shortened: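 Luciferase fold induction was compared with the ligand-alone baseline, and antagonism was scored by the lowest concentration giving clear down-regulation.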

SMILES | hTLR9 (inhibitory effect, antagonist score) | inhibition of TLR9 signaling in response to CpG ODN 2006 (FIG. 1) (FIG. 1, graph)
Cc1nccc2c1[nH]c1ccccc12 [compound 620, Harmane hydrochloride] | 12 (compounds for which there was clear down regulation at 5 μg/ml and 50 μg/ml) | 
COc1ccc2[nH]c3c(c2c1)CCN=C3C [compound 621, Methoxy-6-harmalan] | 12 (compounds for which there was clear down regulation at 5 μg/ml and 50 μg/ml) | 
CC[C@]12CCCN3CCc4c(n(c5ccccc45)[C@](O)(C(=O)OC)C1)[C@@H]32 [compound 636, Epivincamine] | — (compounds for which there was no clear down regulation even at 50 μg/ml) | 
Cl.Cl.c1ccc2c3c([nH]c2c1)C1C2CCC(C4CCCNC42)N1CC3 (stereo not shown) [compound 685, Nitrarine dihydorchloride] | 11 (compounds for which there was clear down regulation only at 50 μg/ml) | 
CN(C)CCCN1c2ccccc2Sc2ccccc21.Cl [compound 693, Promazinehydrochloride] | 12 (compounds for which there was clear down regulation at 5 μg/ml and 50 μg/ml) | 
CN1CCC(OC(c2ccccc2)c2ccccc2)CC1.Cl [compound 707, Diphenylpyralinehydrochloride] | 12 (compounds for which there was clear down regulation at 5 μg/ml and 50 μg/ml) | 
CCCC(C(=O)OCCN(CC)CC)(c1ccccc1)c1ccccc1.Cl [compound 778, Proadifen hydrochloride] | 11 (compounds for which there was clear down regulation only at 50 μg/ml) | 
Cl.Clc1ccc(C(OCCN2CCCCC2)c2ccccc2)cc1 (stereo not shown) [compound 793, Cloperastinehydrochloride] | 12 (compounds for which there was clear down regulation at 5 μg/ml and 50 μg/ml) | 
COc1ccc2c(c1)N(CC(C)CN(C)C)c1ccccc1S2.O=C(O)/C=C\C(=O)O (stereo not shown) [compound 797, Methotrimeprazinemaleat salt] | — (compounds for which there was no clear down regulation even at 50 μg/ml) | 
CS(=O)(=O)O.OC(CCN1CCCCC1)(c1ccccc1)c1ccccc1 [compound 799, Pridinolmethanesulfonate salt] | 11 (compounds for which there was clear down regulation only at 50 μg/ml) | 
C[N+]12CCC(CC1)C(OC(=O)C(O)(c1ccccc1)c1ccccc1)C2.[Br-] (stereo not shown) [compound 822, Clidinium bromide] | 12 (compounds for which there was clear down regulation at 5 μg/ml and 50 μg/ml) | 
Clc1ccc(C(c2ccccc2Cl)C(Cl)Cl)cc1 (stereo not shown) [compound 833, Mitotane] | 12 (compounds for which there was clear down regulation at 5 μg/ml and 50 μg/ml) | 
CCN(CC)C(C)CN1c2ccccc2Sc2ccccc21.Cl (stereo not shown) [compound 840, Ethopropazinehydrochloride] | 11 (compounds for which there was clear down regulation only at 50 μg/ml) | 
CC(CN(C)C)CN1c2ccccc2Sc2ccccc21.CC(CN(C)C)CN1c2ccccc2Sc2ccccc21.O=C(O)C(O)C(O)C(=O)O (stereo not shown) [compound 842, Trimeprazine tartrate] | — (compounds for which there was no clear down regulation even at 50 μg/ml) | 
COC(=O)[C@H]1[C@H]2C[C@@H]3c4[nH]c5cc(OC)ccc5c4CCN3C[C@H]2C[C@@H](OC(=O)c2cc(OC)c(OC)c(OC)c2)[C@@H]1OC [compound 875, Reserpine] | 12 (compounds for which there was clear down regulation at 5 μg/ml and 50 μg/ml) | 
OCc1cc2c(cn1)[nH]c1ccccc12 [compound 878, 3-hydroxymethyl-beta-carboline] | 12 (compounds for which there was clear down regulation at 5 μg/ml and 50 μg/ml) | concentration-dependent inhibition
O=C(O)c1cc(C(c2ccc(O)c(C(=O)O)c2)C(Cl)(Cl)Cl)ccc1O [compound 884] | — (compounds for which there was no clear down regulation even at 50 μg/ml) | 
CN(CCO)C(=O)c1cccc2c1-c1ccccc1C2=O [compound 890] | — (compounds for which there was no clear down regulation even at 50 μg/ml) | 
COC(=O)c1cccc2c1-c1ccccc1/C2=N/O [compound 904] | 13 (compounds for which there was clear down regulation at 0.5 μg/ml, 5 μg/ml, and 50 μg/ml) | 
O=C(O)c1ccccc1NC1CC=CC2=C1C(=O)c1ccccc1C2=O (stereo not shown) [compound 917] | — (compounds for which there was no clear down regulation even at 50 μg/ml) | 

SMILES | hTLR9 (inhibitory effect, antagonist score) | inhibition of TLR9 signaling in response to CpG ODN 2006 (FIG. 1) (FIG. 1, graph)
O=C(O)c1cccc2c1/C(=N/O)c1ccccc1-2 [compound 918] | — (compounds for which there was no clear down regulation even at 50 μg/ml) | 
CCCCOC(=O)c1cc([N+](=O)[O-])cc2c1-c1cc(CO)c([NH+]([O-])O)cc1C2=C(C#N)C#N (stereo not shown) [compound 939] | 11 (compounds for which there was clear down regulation only at 50 μg/ml) | 
O=C(O)c1cccc2c1-c1ccccc1/C2=N/Nc1ccc([N+](=O)[O-])cc1[N+](=O)[O-] [compound 944] | — (compounds for which there was no clear down regulation even at 50 μg/ml) | 
C=CCc1ccccc1OC1(c2ccccc2)OC(=O)c2ccccc21 (stereo not shown) [compound 957] | 12 (compounds for which there was clear down regulation at 5 μg/ml and 50 μg/ml) | 
COC(=O)c1ccc(C2CC(=O)Nc3c2ccc2ccccc32)cc1 (stereo not shown) [compound 965] | — (compounds for which there was no clear down regulation even at 50 μg/ml) | 
O=C(O)c1ccc(C2(c3ccc(C(=O)O)cc3)OC(=O)c3ccccc32)cc1 [compound 970] | 11 (compounds for which there was clear down regulation only at 50 μg/ml) | 
Cc1cc(OC(=O)C2C3CCCCC32)c(C(C)C)cc1C1(c2cc(C(C)C)c(OC(=O)C3C4CCCCC43)cc2C)OC(=O)c2ccccc21 (stereo not shown) [compound 974] | — (compounds for which there was no clear down regulation even at 50 μg/ml) | 
CCN(CC)CCCN(CC(=O)C1c2ccc(Cl)cc2NC(=O)c2ccccc21)C(=O)c1ccccc1 (stereo not shown) [compound 1013] | 11 (compounds for which there was clear down regulation only at 50 μg/ml) | 
O=C1c2ccccc2C(=O)c2c1ccc1c(=O)n(C3CCCCC3)[nH]c21 [compound 1015] | 11 (compounds for which there was clear down regulation only at 50 μg/ml) | 
CCOC(=O)c1cc([N+](=O)[O-])cc2c1-c1ccc([N+](=O)[O-])cc1C2=C(C#N)C#N [compound 1039] | 11 (compounds for which there was clear down regulation only at 50 μg/ml) | 
O=C1c2ccccc2C(=O)c2c1ccc1c(=O)n(-c3ccccc3)[nH]c21 [compound 1042] | 12 (compounds for which there was clear down regulation at 5 μg/ml and 50 μg/ml) | 
O=C(c1cccc2c1-c1ccccc1/C2=N\O)N1CCCCC1 [compound 1050] | 12 (compounds for which there was clear down regulation at 5 μg/ml and 50 μg/ml) | 
NC(=O)c1cccc2c1-c1ccccc1C2 [compound 1132] | — (compounds for which there was no clear down regulation even at 50 μg/ml) | 
NC(=O)c1cc(N)c2c(c1N)C(=O)c1ccccc1C2=O [compound 1158] | 11 (compounds for which there was clear down regulation only at 50 μg/ml) | 
CC(=O)Oc1cc(C)c(C2(c3cc(C(C)C)c(OC(C)=O)cc3C)OC(=O)c3ccccc32)cc1C(C)C [compound 1161] | 12 (compounds for which there was clear down regulation at 5 μg/ml and 50 μg/ml) | 
COC(=O)c1cccc(C(O)(c2ccccc2)c2ccccc2)c1S(=O)(=O)C(C)(C)C [compound 1187] | — (compounds for which there was no clear down regulation even at 50 μg/ml) | 
CCOCCOC(=O)c1cc([N+](=O)[O-])cc2c1-c1c(cc([N+](=O)[O-])cc1[N+](=O)[O-])C2=C(C#N)C#N [compound 1241] | — (compounds for which there was no clear down regulation even at 50 μg/ml) | 
CC1CCN(C(=O)c2cccc3c2-c2ccccc2C3=O)CC1 [compound 1243] | — (compounds for which there was no clear down regulation even at 50 μg/ml) | 
Cc1cccc(C2(c3cccc(C)c3)OC(=O)c3ccccc32)c1 [compound 1308] | 11 (compounds for which there was clear down regulation only at 50 μg/ml) | 
